One assay deals with Bipolaris oryzae. In words: Antifungal activity against Bipolaris oryzae assessed as inhibition of fungal growth incubated for 5 days by paper disk method. It counts as functional, organism-based. Particulars: time 5.0 day.
The subject of a further assay is COLO 201. Put plainly: Cytotoxicity against human COLO201 cells assessed as inhibition of cell proliferation incubated for 24 hrs by WST-1 reagent based titer-plate reader assay. It counts as functional.

Each structure is given as a SMILES string. Calls of active or inactive are those of the source. The calls are words filed in the database; no cut-off is given here.

The values below come from ChEMBL document CHEMBL5335850, “Isolation of Paraphaeoketones: A Plausible Biosynthetic Explanation for Paraphaeolactones via a Benzilic Acid Rearrangement Rather than a Favorskii Rearrangement” (J Nat Prod, 2024).

As to `CC1C=CC2(O)CC(=O)C(=O)C1C2O` (stereo unspecified), the outcome with Bipolaris oryzae and in the assay on COLO 201 was inactive.
Consider `CC1C2CC3(O)OC(C)(O2)C(=O)C1C3O` (stereo unspecified), for which the outcome in the assay on Bipolaris oryzae and in the assay on COLO 201 was inactive.
Turning to `C[C@@H]1C=C[C@@]2(O)[C@H](O)[C@@H]1C(=O)[C@]1(O)O[C@H]3C(=O)[C@@H]4[C@H](C)C=C[C@](O)([C@H]3[C@H]21)[C@@H]4O`, the result in the assay on Bipolaris oryzae and in the assay with COLO 201 was inactive.
